Patent publication US12479820B2, “Pyridin-3-yl derivatives” (Idorsia Pharmaceuticals Ltd, priority 2019, dated 2025)

How the values were obtained:
human LPA1 receptor = target: T1, human LPA1 receptor (Homo sapiens, UniProt Q92633); assay: Beta-arrestin recruitment assay to determine IC50 values for human LPAR1; format: cell-based; conditions: Tango EDG2-bla U2OS cells, antagonist assay, LPA 18:1 500 nM final
T1 construct: TEV protease site; Gal4-VP16 transcription factor; host or cells: Tango EDG2-bla U2OS cells
How it was run: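 Tango EDG2-bla U2OS cells were preincubated 30 min at 37 °C with compound. They were then stimulated with 500 nM (final) LPA 18:1 for 16 h. β-Lactamase reporter read by LiveBLAzer FRET substrate (2 h) as the 460/530 nm ratio; IC50 from 4-parameter logistic fit.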

[1] = test system: LPA-induced skin vascular leakage in Balb/c mice; assay: mouse LPA-induced skin vascular leakage model; format: in vivo; conditions: oral administration of 30 mg/kg to mice; extravasated Evans blue per skin disc
Method: Assessment of In Vivo Potency
The in vivo potency of the compounds of Formula (I) can be determined using a mouse LPA-induced skin vascular leakage model. Female Balb/c mice are treated with either vehicle or test compound (e.g. at 30 mg/kg or 100 mg/kg p.o.) for at least 1 h prior to administration of the albumin marker Evans blue (50 mg/kg, i.v., 0.9% NaCl) and subsequent challenge with LPA (5 μg, i.d.). After 30 minutes, mice are sacrificed by CO2 inhalation. Discs of skin from the injection sites are removed, digested in formamide (500 μl, 37° C., 24 hrs) and the content of Evans blue quantified by colorimetric assay. Results are expressed as extravasated Evans blue per skin disc (μg/disc).
As an example, selected compound of the present invention, Ex 21-2, is able to effectively reduce LPA-induced vascular leakage after oral administration of 30 mg/kg to mice as compared to a group of animals treated with vehicle only. Reduction of vascular leakage compared to vehicle group was >60%.

T1 sequence (Q92633 whole entry, the tested form may be a part): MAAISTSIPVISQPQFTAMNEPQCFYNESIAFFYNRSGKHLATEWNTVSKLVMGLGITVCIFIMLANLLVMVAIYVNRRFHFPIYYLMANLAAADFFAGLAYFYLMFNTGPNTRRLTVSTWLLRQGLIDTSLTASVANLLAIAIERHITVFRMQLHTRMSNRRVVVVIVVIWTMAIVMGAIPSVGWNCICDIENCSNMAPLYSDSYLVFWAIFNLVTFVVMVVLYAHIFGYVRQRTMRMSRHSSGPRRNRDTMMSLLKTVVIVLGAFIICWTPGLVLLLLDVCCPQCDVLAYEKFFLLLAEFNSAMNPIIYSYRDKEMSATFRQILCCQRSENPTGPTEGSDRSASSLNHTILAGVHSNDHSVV

| IC50 (human LPA1 receptor) [nM] | Structure (SMILES) | Reduction of vascular leakage compared to vehicle group [1] [%] |
| --- | --- | --- |
| 3 | COc1cc(Cl)ncc1NC(=O)C1(c2ccccc2C(C)C)CN(S(N)(=O)=O)C1 [Example 21-2, N-(6-chloro-4-methoxypyridin-3-yl)-3-(2-isopropylphenyl)-1-sulfamoylazetidine-3-carboxamide] | > 60 |
| 11 | COc1cc(Cl)ncc1NC(=O)C1(c2ccccc2C(C)C)CN(S(C)(=O)=O)C1 [Example 20-1, N-(6-chloro-4-methoxypyridin-3-yl)-3-(2-isopropylphenyl)-1-(methylsulfonyl)azetidine-3-carboxamide] |  |
| 3 | COc1cc(Cl)ncc1NC(=O)C1(c2ccccc2C(C)C)CN(C2CCC2)C1 [Example 18-8, N-(6-chloro-4-methoxypyridin-3-yl)-1-cyclobutyl-3-(2-isopropylphenyl)azetidine-3-carboxamide] |  |
| 2 | CCOc1cc(Cl)ncc1NC(=O)C1(c2ccccc2C(C)C)CN(S(N)(=O)=O)C1 [Example 21-3, N-(6-chloro-4-ethoxypyridin-3-yl)-3-(2-isopropylphenyl)-1-sulfamoylazetidine-3-carboxamide] |  |
| 34 | COc1cc(Cl)ncc1NC(=O)C1(c2ccccc2C(C)C)CN(S(=O)(=O)C2COC2)C1 [Example 20-5, N-(6-chloro-4-methoxypyridin-3-yl)-3-(2-isopropylphenyl)-1-(oxetan-3-ylsulfonyl)azetidine-3-carboxamide] |  |
| 2 | COc1cc(Br)ncc1NC(=O)C1(c2ccccc2C(C)C)CN(S(N)(=O)=O)C1 [Example 21-9, N-(6-bromo-4-methoxypyridin-3-yl)-3-(2-isopropylphenyl)-1-sulfamoylazetidine-3-carboxamide] |  |
| 44 | COc1cc(Cl)ncc1NC(=O)C1(c2ccccc2C(C)C)CN(CCN)C1 [Example 18-7, 1-(2-aminoethyl)-N-(6-chloro-4-methoxypyridin-3-yl)-3-(2-isopropylphenyl)azetidine-3-carboxamide] |  |

Continued, molecule first:

| Structure (SMILES) | IC50 (human LPA1 receptor) [nM] | Reduction of vascular leakage compared to vehicle group [1] [%] |
| --- | --- | --- |
| CCOC(=O)C(C)(C)CCCN1CC(C(=O)Nc2cnc(Cl)cc2OC)(c2ccccc2C(C)C)C1 [Example 18-24, ethyl 5-(3-((6-chloro-4-methoxypyridin-3-yl)carbamoyl)-3-(2-isopropylphenyl)azetidin-1-yl)-2,2-dimethylpentanoate] | 156 |  |
| C=C(C)C(=O)OCCNC(=O)N1CC(C(=O)Nc2cnc(Cl)cc2OC)(c2ccccc2C(C)C)C1 [Example 22-8, 2-(3-((6-chloro-4-methoxypyridin-3-yl)carbamoyl)-3-(2-isopropylphenyl)azetidine-1-carboxamido)ethyl methacrylate] | 12 |  |
| COc1cc(Cl)ncc1NC(=O)C1(c2ccccc2C(C)C)CN(C(=O)Cn2ncnn2)C1 [Example 19-10, 1-(2-(2H-tetrazol-2-yl)acetyl)-N-(6-chloro-4-methoxypyridin-3-yl)-3-(2-isopropylphenyl)azetidine-3-carboxamide] | 17 |  |
| COC[C@H](C)Oc1cc(Cl)ncc1NC(=O)C1(c2ccccc2C(C)C)CN(C(=O)NC2CC2)C1 [Example 22-6, (S)-N3-(6-chloro-4-((1-methoxypropan-2-yl)oxy)pyridin-3-yl)-N1-cyclopropyl-3-(2-isopropylphenyl)azetidine-1,3-dicarboxamide] | 3 |  |
| COCCOC(=O)N1CC(C(=O)Nc2cnc(Cl)cc2OC)(c2ccccc2C(C)C)C1 [Example 23-2, 2-Methoxyethyl 3-((6-chloro-4-methoxypyridin-3-yl)carbamoyl)-3-(2-isopropylphenyl)azetidine-1-carboxylate] | 69 |  |
| COc1cc(Cl)ncc1NC(=O)C1(c2ccccc2C(C)C)CN(C(=O)CC(C)(C)C(=O)O)C1 [Example 19-18, 4-(3-((6-chloro-4-methoxypyridin-3-yl)carbamoyl)-3-(2-isopropylphenyl)azetidin-1-yl)-2,2-dimethyl-4-oxobutanoic acid] | 88 |  |
| COc1cc(Cl)ncc1NC(=O)C1(c2ccccc2C(C)C)CN(C2COC2)C1 [Example 18-9, N-(6-chloro-4-methoxypyridin-3-yl)-3-(2-isopropylphenyl)-1-(oxetan-3-yl)azetidine-3-carboxamide] | 22 |  |
